Test results published in patent US20140315883A1, “6H-IMIDAZO[1,5-a]PYRROLO[2,3-e]PYRAZINE COMPOUNDS” (ABBVIE INC., priority 2013, published 2014).

Assays:
Syk = target: T1, Syk (Homo sapiens, UniProt P43405); assay: In vitro Syk kinase activity measured by trFRET; type: biochemical; conditions: Syk catalytic domain, 0.001 mM ATP
T1 construct: Purified Syk catalytic domain (aa 356-635 with a C-terminal His-tag purified in-house); His-tag (C); made in house
Procedure: In Vitro Syk Kinase Activity Measured by Time-Resolved Fluorescence Resonance Energy Transfer (trFRET)
After about 60 min incubation at rt, the reaction was quenched by addition of EDTA (final concentration: 100 mM) and developed by addition of revelation reagents (final approximate concentrations: 30 mM HEPES pH 7.0, 0.06% BSA, 0.006% Tween-20, 0.24 M KF, 80 ng/mL PT66K (europium labeled anti-phosphotyrosine antibody cat #61T66KLB Cisbio, Bedford, Mass.) and 0.6 μg/mL SAXL (Phycolink streptavidin-allophycocyanin acceptor, cat #PJ25S, Prozyme, San Leandro, Calif.). The developed reaction was incubated in the dark either at about 4° C. for about 14 h or for about 60 min at rt, then read via a time-resolved fluorescence detector (Rubystar, BMG) using a 337 nm laser for excitation and monitoring emission wavelengths at 665 nm. Within the linear range of the assay, the observed signal at 665 nm was directly related to phosphorylated product and can be used to calculate the IC50 values.

[1] = patients in clinical trials; cited from earlier work

## CC(=O)N1C[C@H](O)C[C@@H]1c1nc(-c2ccc(N3CCOC(C)C3)cc2)c2cnc3[nH]ccc3n12 (stereo partly drawn) [F.1.7, 1-((2R,4R)-4-hydroxy-2-(3-(4-(2-methylmorpholino)phenyl)-6H-imidazo[1,5-a]pyrrolo[2,3-e]pyrazin-1-yl)pyrrolidin-1-yl)ethanone]
Syk
  IC50: < 10 nM

## CC(=O)N1C[C@H](O)C[C@@H]1c1nc(-c2ccc(N3CCC(F)(F)CC3)cc2)c2cnc3[nH]ccc3n12 [F.1.8, 1-((2R,4R)-2-(3-(4-(4,4-difluoropiperidin-1-yl)phenyl)-6H-imidazo[1,5-a]pyrrolo[2,3-e]pyrazin-1-yl)-4-hydroxypyrrolidin-1-yl)ethanone]
Syk
  IC50: < 10 nM

## CC(=O)N1C[C@H](O)C[C@@H]1c1nc(-c2ccc(N3CC(F)(F)C3)cc2)c2cnc3[nH]ccc3n12 [F.1.9, 1-((2R,4R)-2-(3-(4-(3,3-difluoroazetidin-1-yl)phenyl)-6H-imidazo[1,5-a]pyrrolo[2,3-e]pyrazin-1-yl)-4-hydroxypyrrolidin-1-yl)ethanone]
Syk
  IC50: < 10 nM

## CC(=O)N1C[C@H](O)C[C@@H]1c1nc(-c2ccc(N3CCOCC3)cc2)c2cnc3[nH]cc(Cl)c3n12 [F.1.10, 1-((2R,4R)-2-(8-chloro-3-(4-morpholinophenyl)-6H-imidazo[1,5-a]pyrrolo[2,3-e]pyrazin-1-yl)-4-hydroxypyrrolidin-1-yl)ethanone]
Syk
  IC50: < 10 nM

## CCOc1ccc(-c2nc([C@H]3C[C@@H](O)CN3C(C)=O)n3c2cnc2[nH]cc(Cl)c23)cc1 [F.1.11, 1-((2R,4R)-2-(8-chloro-3-(4-ethoxyphenyl)-6H-imidazo[1,5-a]pyrrolo[2,3-e]pyrazin-1-yl)-4-hydroxypyrrolidin-1-yl)ethanone]
Syk
  IC50: 10 to 30 nM

## CC(=O)N1C[C@H](O)C[C@@H]1c1nc(-c2ccc(OCCN3CCOCC3)cc2)c2cnc3[nH]ccc3n12 [F.1.12, 1-((2R,4R)-4-hydroxy-2-(3-(4-(2-morpholinoethoxy)phenyl)-6H-imidazo[1,5-a]pyrrolo[2,3-e]pyrazin-1-yl)pyrrolidin-1-yl)ethanone]
Syk
  IC50: 10 to 30 nM

## COc1ccc(-c2nc([C@H]3C[C@@H](O)CN3C(C)=O)n3c2cnc2[nH]cc(C)c23)cc1 [F.1.14]
Syk
  IC50: 30 to 100 nM

## CC(=O)N1C[C@H](O)C[C@@H]1c1nc(-c2ccc(C(C)(C)O)cc2)c2cnc3[nH]ccc3n12 [F.1.15, 1-((2R,4R)-4-hydroxy-2-(3-(4-(2-hydroxypropan-2-yl)phenyl)-6H-imidazo[1,5-a]pyrrolo[2,3-e]pyrazin-1-yl)pyrrolidin-1-yl)ethanone]
Syk
  IC50: < 10 nM

## CC(=O)N1C[C@H](O)C[C@@H]1c1nc(-c2ccc(C(C)(C)C#N)cc2)c2cnc3[nH]ccc3n12 [F.1.16, 2-(4-(1-((2R,4R)-1-acetyl-4-hydroxypyrrolidin-2-yl)-6H-imidazo[1,5-a]pyrrolo[2,3-e]pyrazin-3-yl)phenyl)-2-methylpropanenitrile]
Syk
  IC50: < 10 nM

## CC(=O)N1C[C@H](O)C[C@@H]1c1nc(-c2ccc(N3CCOCC3)cc2)c2cnc3[nH]ccc3n12 [F.1.17, 1-((2R,4R)-4-hydroxy-2-(3-(4-morpholinophenyl)-6H-imidazo[1,5-a]pyrrolo[2,3-e]pyrazin-1-yl)pyrrolidin-1-yl)ethanone]
Syk
  IC50: < 10 nM

## CC(=O)N1C[C@H](O)C[C@@H]1c1nc(-c2ccc(C3CCOCC3)cc2)c2cnc3[nH]ccc3n12 [F.1.18, 1-((2R,4R)-4-hydroxy-2-(3-(4-(tetrahydro-2H-pyran-4-yl)phenyl)-6H-imidazo[1,5-a]pyrrolo[2,3-e]pyrazin-1-yl)pyrrolidin-1-yl)ethanone]
Syk
  IC50: < 10 nM

## CC(=O)N1C[C@H](O)C[C@@H]1c1nc(-c2ccc3c(c2)CCCO3)c2cnc3[nH]ccc3n12 [F.1.19, 1-((2R,4R)-2-(3-(chroman-6-yl)-6H-imidazo[1,5-a]pyrrolo[2,3-e]pyrazin-1-yl)-4-hydroxypyrrolidin-1-yl)ethanone]
Syk
  IC50: 10 to 30 nM

## COc1ccc(-c2nc([C@H]3C[C@@H](O)CN3C(C)=O)n3c2cnc2[nH]ccc23)cc1OC [F.1.20, 1-((2R,4R)-2-(3-(3,4-dimethoxyphenyl)-6H-imidazo[1,5-a]pyrrolo[2,3-e]pyrazin-1-yl)-4-hydroxypyrrolidin-1-yl)ethanone]
Syk
  IC50: < 10 nM

## COCCOc1ccc(-c2nc([C@H]3C[C@@H](O)CN3C(C)=O)n3c2cnc2[nH]ccc23)cc1 [F.1.21, 1-((2R,4R)-4-hydroxy-2-(3-(4-(2-methoxyethoxy)phenyl)-6H-imidazo[1,5-a]pyrrolo[2,3-e]pyrazin-1-yl)pyrrolidin-1-yl)ethanone]
Syk
  IC50: 10 to 30 nM

## COc1ccc(-c2nc([C@H]3C[C@@H](O)CN3C(C)=O)n3c2cnc2[nH]ccc23)cc1C [F.1.22, 1-((2R,4R)-4-hydroxy-2-(3-(4-methoxy-3-methylphenyl)-6H-imidazo[1,5-a]pyrrolo[2,3-e]pyrazin-1-yl)pyrrolidin-1-yl)ethanone]
Syk
  IC50: 10 to 30 nM

## CC(=O)N1C[C@H](O)C[C@@H]1c1nc(-c2ccc(OC(C)C)cc2)c2cnc3[nH]ccc3n12 [F.1.23, 1-((2R,4R)-4-hydroxy-2-(3-(4-isopropoxyphenyl)-6H-imidazo[1,5-a]pyrrolo[2,3-e]pyrazin-1-yl)pyrrolidin-1-yl)ethanone]
Syk
  IC50: 10 to 30 nM

## CC(=O)N1C[C@H](O)C[C@@H]1c1nc(-c2ccc3c(c2)OCO3)c2cnc3[nH]ccc3n12 [F.1.24, 1-((2R,4R)-2-(3-(benzo[d][1,3]dioxol-5-yl)-6H-imidazo[1,5-a]pyrrolo[2,3-e]pyrazin-1-yl)-4-hydroxypyrrolidin-1-yl)ethanone]
Syk
  IC50: > 100 nM

## COc1ccc(-c2nc([C@H]3C[C@@H](O)CN3C(C)=O)n3c2cnc2[nH]ccc23)cc1F [F.1.26, 1-((2R,4R)-2-(3-(3-fluoro-4-methoxyphenyl)-6H-imidazo[1,5-a]pyrrolo[2,3-e]pyrazin-1-yl)-4-hydroxypyrrolidin-1-yl)ethanone]
Syk
  IC50: 30 to 100 nM

## CC(=O)N1C[C@H](O)C[C@@H]1c1nc(-c2ccc(C3(O)CCC3)cc2)c2cnc3[nH]ccc3n12 [F.1.27, 1-((2R,4R)-4-hydroxy-2-(3-(4-(1-hydroxycyclobutyl)phenyl)-6H-imidazo[1,5-a]pyrrolo[2,3-e]pyrazin-1-yl)pyrrolidin-1-yl)ethanone]
Syk
  IC50: 10 to 30 nM

## CCOc1ccc(-c2nc([C@H]3C[C@@H](O)CN3C(C)=O)n3c2cnc2[nH]ccc23)cc1C [F.1.28, 1-((2R,4R)-2-(3-(4-ethoxy-3-methylphenyl)-6H-imidazo[1,5-a]pyrrolo[2,3-e]pyrazin-1-yl)-4-hydroxypyrrolidin-1-yl)ethanone]
Syk
  IC50: < 10 nM

## CC(=O)N1C[C@H](O)C[C@@H]1c1nc(-c2ccc3c(c2)NCCO3)c2cnc3[nH]ccc3n12 [F.1.29, 1-((2R,4R)-2-(3-(3,4-dihydro-2H-benzo[b][1,4]oxazin-6-yl)-6H-imidazo[1,5-a]pyrrolo[2,3-e]pyrazin-1-yl)-4-hydroxypyrrolidin-1-yl)ethanone]
Syk
  IC50: 10 to 30 nM

## CC(=O)N1C[C@H](O)C[C@@H]1c1nc(-c2ccc3c(c2)NCCC3)c2cnc3[nH]ccc3n12 [F.1.30, 1-((2R,4R)-4-hydroxy-2-(3-(1,2,3,4-tetrahydroquinolin-7-yl)-6H-imidazo[1,5-a]pyrrolo[2,3-e]pyrazin-1-yl)pyrrolidin-1-yl)ethanone]
Syk
  IC50: 10 to 30 nM

## CC(=O)N1C[C@H](O)C[C@@H]1c1nc(-c2ccc(OC3CC3)cc2)c2cnc3[nH]ccc3n12 [F.1.31]
Syk
  IC50: 10 to 30 nM

## CCN(CC)CCNC(=O)c1c(C)[nH]c(/C=C2\C(=O)Nc3ccc(F)cc32)c1C [sunitibnib, sunitinib]
[1]
  risk for hypertension: increased risk for hypertension

## (2R,4R)-2-(3-(chroman-6-yl)-6H-imidazo[1,5-a]pyrrolo[2,3-e]pyrazin-1-yl)-4-hydroxypyrrolidine-1-carboxamide [Example #6]
Syk
  IC50: 10 to 30 nM
